Test results taken from ChEMBL document CHEMBL1909046, “DrugMatrix in vitro pharmacology data”.
Where a SMILES comes first, the peptide text is derived from it. Bridges are numbered along the chain shown (N, C = ends). [ ]: non-standard residue; d: D form. The star is where a group is joined. Ileψ(thiazoline)Cys = CC[C@H](C)[C@H](N)C1=N[C@H](C(=O)*)CS1; dOrn = NCCC[C@@H](N)C(=O)O

Key:
[1] = target: Sodium-dependent noradrenaline transporter (Homo sapiens, UniProt P23975); assay: DRUGMATRIX: Norepinephrine Transporter radioligand binding (ligand: [125I] RTI-55); assay type: cell membranes, MDCK, Membrane; conditions: mdck; Not Active = under 50% inhibition at 10 µM
[2] = target: T1, B2 bradykinin receptor (Homo sapiens, UniProt P30411); assay type: cell membranes, Membrane; conditions: chem-1; note: in other assays of this panel Not Active means under 50% inhibition at 10 µM
T1 sequence (P30411 whole entry): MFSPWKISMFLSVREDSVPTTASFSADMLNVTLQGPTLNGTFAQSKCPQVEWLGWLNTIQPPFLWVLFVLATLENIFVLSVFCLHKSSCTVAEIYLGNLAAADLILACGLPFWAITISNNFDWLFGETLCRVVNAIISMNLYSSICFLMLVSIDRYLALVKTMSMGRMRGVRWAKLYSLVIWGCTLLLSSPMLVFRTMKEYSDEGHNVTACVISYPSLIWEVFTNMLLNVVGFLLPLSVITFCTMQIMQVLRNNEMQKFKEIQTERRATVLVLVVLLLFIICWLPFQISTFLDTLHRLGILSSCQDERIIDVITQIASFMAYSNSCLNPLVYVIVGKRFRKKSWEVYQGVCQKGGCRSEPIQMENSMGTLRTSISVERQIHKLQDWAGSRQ

[3] = DRUGMATRIX: GABAA, Muscimol, Central radioligand binding (ligand: [3H] Muscimol); assay type: cell membranes, Rattus norvegicus, Wistar, Brain, Membrane; conditions: Not Active = under 50% inhibition at 10 µM
[4] = target: T2, Muscarinic acetylcholine receptor M2 (Homo sapiens, UniProt P08172); assay type: cell membranes, CHO-K1, Membrane; conditions: cho-k1; note: in other assays of this panel Not Active means under 50% inhibition at 10 µM
T2 sequence (P08172 whole entry): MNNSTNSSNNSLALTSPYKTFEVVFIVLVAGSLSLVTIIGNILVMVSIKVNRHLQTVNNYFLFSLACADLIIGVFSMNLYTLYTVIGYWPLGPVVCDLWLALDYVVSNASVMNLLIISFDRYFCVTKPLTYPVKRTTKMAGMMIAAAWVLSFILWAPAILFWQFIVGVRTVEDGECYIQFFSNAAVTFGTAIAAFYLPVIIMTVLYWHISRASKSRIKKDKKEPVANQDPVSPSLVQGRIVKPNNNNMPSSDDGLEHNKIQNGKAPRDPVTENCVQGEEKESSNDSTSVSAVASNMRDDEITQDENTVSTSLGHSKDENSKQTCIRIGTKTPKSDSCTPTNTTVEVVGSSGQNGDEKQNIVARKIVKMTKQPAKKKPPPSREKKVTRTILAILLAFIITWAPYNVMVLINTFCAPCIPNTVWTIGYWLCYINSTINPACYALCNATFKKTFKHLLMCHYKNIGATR

[5] = target: T3, Muscarinic acetylcholine receptor M5 (Homo sapiens, UniProt P08912); assay type: cell membranes, CHO-K1, Membrane; conditions: cho-k1; note: in other assays of this panel Not Active means under 50% inhibition at 10 µM
T3 sequence (P08912 whole entry): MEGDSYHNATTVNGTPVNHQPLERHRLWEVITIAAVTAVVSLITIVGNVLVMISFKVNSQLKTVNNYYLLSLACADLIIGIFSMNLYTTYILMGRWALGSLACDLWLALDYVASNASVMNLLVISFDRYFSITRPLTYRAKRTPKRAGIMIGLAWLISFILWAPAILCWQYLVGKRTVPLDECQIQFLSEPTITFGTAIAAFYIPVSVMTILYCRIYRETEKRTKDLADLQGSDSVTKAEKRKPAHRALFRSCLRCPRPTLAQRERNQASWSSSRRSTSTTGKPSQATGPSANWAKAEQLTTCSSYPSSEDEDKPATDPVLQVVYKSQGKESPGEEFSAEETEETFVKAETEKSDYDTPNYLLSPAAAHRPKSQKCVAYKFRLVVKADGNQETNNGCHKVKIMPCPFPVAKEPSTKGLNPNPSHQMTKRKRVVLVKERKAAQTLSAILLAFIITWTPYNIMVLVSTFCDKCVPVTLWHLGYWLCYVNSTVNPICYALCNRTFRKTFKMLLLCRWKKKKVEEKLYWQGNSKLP

[6] = target: T4, Neuropeptide Y receptor type 1 (Homo sapiens, UniProt P25929); assay type: cell membranes, Membrane; conditions: sk-n-mc; note: in other assays of this panel Not Active means under 50% inhibition at 10 µM
T4 sequence (P25929 whole entry): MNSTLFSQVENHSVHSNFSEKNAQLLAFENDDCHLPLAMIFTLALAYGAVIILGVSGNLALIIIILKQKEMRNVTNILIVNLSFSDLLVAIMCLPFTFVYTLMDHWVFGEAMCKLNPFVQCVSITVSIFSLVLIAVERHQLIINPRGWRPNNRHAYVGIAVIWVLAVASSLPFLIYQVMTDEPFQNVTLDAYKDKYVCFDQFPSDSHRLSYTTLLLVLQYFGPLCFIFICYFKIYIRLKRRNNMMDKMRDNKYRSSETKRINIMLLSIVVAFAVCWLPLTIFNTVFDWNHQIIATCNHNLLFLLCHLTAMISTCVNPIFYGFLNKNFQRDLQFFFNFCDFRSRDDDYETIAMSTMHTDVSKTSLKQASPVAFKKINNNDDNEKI

[7] = target: Nitric oxide synthase 1 (Rattus norvegicus, UniProt P29476); assay type: tissue-based, Cerebellum; note: in other assays of this panel Not Active means under 50% inhibition at 10 µM
[8] = target: Delta-type opioid receptor (Homo sapiens, UniProt P41143); assay type: cell membranes, HEK293, Membrane; conditions: hek293; note: in other assays of this panel Not Active means under 50% inhibition at 10 µM
[9] = target: Mitogen-activated protein kinase 3 (Homo sapiens, UniProt P27361); assay: DRUGMATRIX: Protein Serine/Threonine Kinase, ERK1 enzyme inhibition (substrate: Myelin Basic Protein); set-up: species or system Escherichia coli; conditions: Not Active = under 50% inhibition at 10 µM
[10] = target: T5, Adenosine receptor A3 (Homo sapiens, UniProt P0DMS8); assay type: cell membranes, CHO-K1, Membrane; conditions: cho-k1
T5 sequence (P0DMS8 whole entry): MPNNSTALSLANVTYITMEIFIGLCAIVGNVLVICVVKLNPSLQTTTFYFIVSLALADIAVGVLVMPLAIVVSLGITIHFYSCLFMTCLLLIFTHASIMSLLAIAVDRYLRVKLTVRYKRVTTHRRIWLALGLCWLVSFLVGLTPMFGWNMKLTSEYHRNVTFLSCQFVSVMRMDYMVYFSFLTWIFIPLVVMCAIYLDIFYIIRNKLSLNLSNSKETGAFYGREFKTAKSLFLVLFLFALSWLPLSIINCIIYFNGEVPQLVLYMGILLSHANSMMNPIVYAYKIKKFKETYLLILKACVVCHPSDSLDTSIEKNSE

[11] = target: Cytochrome P450 2D6 (Homo sapiens, UniProt P10635); conditions: bti-tn-5b1-4; note: in other assays of this panel Not Active means under 50% inhibition at 10 µM
Cytochrome P450 2D6, sequence (P10635 whole entry): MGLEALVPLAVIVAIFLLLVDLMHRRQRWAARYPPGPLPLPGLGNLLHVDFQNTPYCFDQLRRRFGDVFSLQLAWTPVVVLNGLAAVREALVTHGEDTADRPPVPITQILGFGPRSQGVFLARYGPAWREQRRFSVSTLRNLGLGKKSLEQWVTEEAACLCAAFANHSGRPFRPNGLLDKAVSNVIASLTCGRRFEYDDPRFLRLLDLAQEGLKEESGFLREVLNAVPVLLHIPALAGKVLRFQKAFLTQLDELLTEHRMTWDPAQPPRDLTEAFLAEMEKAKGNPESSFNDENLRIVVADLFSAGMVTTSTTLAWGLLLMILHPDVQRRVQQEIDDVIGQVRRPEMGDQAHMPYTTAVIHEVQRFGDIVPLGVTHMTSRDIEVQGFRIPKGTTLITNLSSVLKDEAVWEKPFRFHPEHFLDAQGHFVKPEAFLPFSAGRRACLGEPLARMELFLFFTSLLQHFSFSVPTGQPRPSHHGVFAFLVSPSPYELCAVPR

Mitogen-activated protein kinase 3, sequence (P27361 whole entry): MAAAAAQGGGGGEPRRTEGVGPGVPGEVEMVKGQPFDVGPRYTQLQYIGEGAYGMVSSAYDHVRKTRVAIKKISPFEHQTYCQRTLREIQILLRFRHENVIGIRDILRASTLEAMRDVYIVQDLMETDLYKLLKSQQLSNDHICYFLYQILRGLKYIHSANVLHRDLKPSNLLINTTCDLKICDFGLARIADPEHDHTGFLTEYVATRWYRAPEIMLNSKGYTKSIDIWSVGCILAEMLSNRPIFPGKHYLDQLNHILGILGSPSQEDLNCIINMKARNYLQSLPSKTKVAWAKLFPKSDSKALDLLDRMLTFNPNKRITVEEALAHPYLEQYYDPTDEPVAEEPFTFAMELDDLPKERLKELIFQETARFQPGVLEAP
Sodium-dependent noradrenaline transporter, sequence (P23975 whole entry): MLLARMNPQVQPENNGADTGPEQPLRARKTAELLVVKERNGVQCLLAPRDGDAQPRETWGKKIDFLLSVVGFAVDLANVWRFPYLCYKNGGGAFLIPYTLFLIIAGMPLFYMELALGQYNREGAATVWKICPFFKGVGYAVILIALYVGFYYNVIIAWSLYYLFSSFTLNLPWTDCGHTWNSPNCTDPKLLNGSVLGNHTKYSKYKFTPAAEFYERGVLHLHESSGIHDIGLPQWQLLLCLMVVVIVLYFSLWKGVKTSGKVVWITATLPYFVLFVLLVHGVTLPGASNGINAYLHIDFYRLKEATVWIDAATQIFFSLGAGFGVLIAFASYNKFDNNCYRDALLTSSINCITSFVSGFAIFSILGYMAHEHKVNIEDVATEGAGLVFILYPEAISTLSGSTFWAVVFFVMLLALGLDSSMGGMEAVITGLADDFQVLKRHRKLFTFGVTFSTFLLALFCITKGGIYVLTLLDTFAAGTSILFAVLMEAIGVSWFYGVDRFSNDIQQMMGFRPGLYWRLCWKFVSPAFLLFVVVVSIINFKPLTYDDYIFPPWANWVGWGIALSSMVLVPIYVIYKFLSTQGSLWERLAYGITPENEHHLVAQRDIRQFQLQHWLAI
Nitric oxide synthase 1, sequence (P29476 whole entry): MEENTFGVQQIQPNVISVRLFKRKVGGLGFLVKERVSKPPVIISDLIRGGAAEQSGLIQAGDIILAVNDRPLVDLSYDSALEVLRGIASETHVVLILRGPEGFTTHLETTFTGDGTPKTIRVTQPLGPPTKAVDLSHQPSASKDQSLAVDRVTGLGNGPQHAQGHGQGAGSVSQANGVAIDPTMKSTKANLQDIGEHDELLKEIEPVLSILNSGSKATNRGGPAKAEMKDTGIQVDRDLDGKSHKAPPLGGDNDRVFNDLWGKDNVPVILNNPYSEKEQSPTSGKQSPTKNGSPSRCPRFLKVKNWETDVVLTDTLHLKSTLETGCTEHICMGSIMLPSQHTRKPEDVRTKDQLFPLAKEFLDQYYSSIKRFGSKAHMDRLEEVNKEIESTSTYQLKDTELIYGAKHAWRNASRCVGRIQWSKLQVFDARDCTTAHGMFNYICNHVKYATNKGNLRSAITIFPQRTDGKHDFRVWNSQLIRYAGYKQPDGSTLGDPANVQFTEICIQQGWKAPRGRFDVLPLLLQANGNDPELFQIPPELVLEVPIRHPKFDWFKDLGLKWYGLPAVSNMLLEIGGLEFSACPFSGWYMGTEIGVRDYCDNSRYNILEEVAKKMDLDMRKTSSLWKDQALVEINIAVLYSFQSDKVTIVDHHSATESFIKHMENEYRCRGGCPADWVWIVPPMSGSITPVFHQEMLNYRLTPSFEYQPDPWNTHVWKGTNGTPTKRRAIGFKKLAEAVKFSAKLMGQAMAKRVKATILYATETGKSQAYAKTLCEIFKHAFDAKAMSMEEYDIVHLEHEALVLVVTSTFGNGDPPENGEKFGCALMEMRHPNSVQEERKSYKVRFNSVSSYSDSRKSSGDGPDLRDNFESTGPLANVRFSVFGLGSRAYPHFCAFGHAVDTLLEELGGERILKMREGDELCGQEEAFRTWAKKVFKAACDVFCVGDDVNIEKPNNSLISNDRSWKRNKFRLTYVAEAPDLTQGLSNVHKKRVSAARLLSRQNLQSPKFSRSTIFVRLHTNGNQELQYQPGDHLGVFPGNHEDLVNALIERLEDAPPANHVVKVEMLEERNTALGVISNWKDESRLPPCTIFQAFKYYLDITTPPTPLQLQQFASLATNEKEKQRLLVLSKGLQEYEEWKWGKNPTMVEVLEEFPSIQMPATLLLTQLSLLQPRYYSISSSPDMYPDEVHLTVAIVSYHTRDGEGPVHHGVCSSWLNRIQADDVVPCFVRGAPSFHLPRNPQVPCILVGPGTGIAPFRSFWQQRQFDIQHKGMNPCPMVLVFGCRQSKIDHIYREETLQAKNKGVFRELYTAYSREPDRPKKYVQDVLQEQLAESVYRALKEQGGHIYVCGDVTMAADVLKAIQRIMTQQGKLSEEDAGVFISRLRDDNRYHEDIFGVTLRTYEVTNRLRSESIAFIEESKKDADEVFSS
Delta-type opioid receptor, sequence (P41143 whole entry): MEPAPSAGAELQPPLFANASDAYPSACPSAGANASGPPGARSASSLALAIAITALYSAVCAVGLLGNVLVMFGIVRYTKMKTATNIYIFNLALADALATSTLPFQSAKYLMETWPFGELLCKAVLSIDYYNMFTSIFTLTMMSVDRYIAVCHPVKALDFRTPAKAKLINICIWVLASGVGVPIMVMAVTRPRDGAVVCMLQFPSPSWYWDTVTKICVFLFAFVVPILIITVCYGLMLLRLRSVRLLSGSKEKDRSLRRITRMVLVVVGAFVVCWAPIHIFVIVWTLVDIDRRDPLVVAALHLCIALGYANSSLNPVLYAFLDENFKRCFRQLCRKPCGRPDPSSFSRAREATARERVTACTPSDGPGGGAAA

NCC[C@H](O)C(=O)N[C@@H]1C[C@H](N)[C@@H](O[C@H]2O[C@H](CN)[C@@H](O)[C@H](O)[C@H]2O)[C@H](O)[C@H]1O[C@H]1O[C@H](CO)[C@@H](O)[C@H](N)[C@H]1O [AMIKACIN]
Not Active: IC50 [1] | IC50 [2] | IC50 [3] | Ki [3] | IC50 [4] | IC50 [5] | IC50 [6] | IC50 [7] | IC50 [8] | IC50 [9] | IC50 [10] | IC50 [11] | Ki [11]

CC1(C)S[C@@H]2[C@H](NC(=O)[C@H](N)c3ccc(O)cc3)C(=O)N2[C@H]1C(=O)O [AMOXICILLIN]
Not Active: IC50 [1] | IC50 [2] | IC50 [3] | Ki [3] | IC50 [4] | IC50 [5] | IC50 [6] | IC50 [7] | IC50 [8] | IC50 [9] | IC50 [10] | IC50 [11] | Ki [11]

CCOC(=O)OC(C)OC1=C(C(=O)Nc2ccccn2)N(C)S(=O)(=O)c2ccccc21 (stereo not given) [AMPIROXICAM]
Not Active: IC50 [1] | IC50 [2] | IC50 [3] | Ki [3] | IC50 [4] | IC50 [5] | IC50 [6] | IC50 [7] | IC50 [8] | IC50 [9] | IC50 [10] | IC50 [11] | Ki [11]

N#C[C@H](O[C@@H]1O[C@H](CO[C@@H]2O[C@H](CO)[C@@H](O)[C@H](O)[C@H]2O)[C@@H](O)[C@H](O)[C@H]1O)c1ccccc1 [AMYGDALIN]
Not Active: IC50 [1] | IC50 [2] | IC50 [3] | Ki [3] | IC50 [4] | IC50 [5] | IC50 [6] | IC50 [7] | IC50 [8] | IC50 [9] | IC50 [10] | IC50 [11] | Ki [11]

N=C(N)NCCCCNC(=N)N.O=S(=O)(O)O [ARCAINE SULFATE]
Not Active: IC50 [1] | IC50 [2] | IC50 [3] | Ki [3] | IC50 [4] | IC50 [5] | IC50 [6] | IC50 [7] | IC50 [8] | IC50 [9] | IC50 [10] | IC50 [11] | Ki [11]

C=C1[C@@H]2CCC3[C@@](CC[C@@H]4[C@H](C(=O)O)C[C@@H](O[C@@H]5O[C@H](CO)[C@@H](OS(=O)(=O)[O-])[C@H](OS(=O)(=O)[O-])[C@H]5OC(=O)CC(C)C)C[C@@]34C)(C2)[C@@H]1O.[K+].[K+] (stereo not given in full) [ATRACTYLOSIDE]
Not Active: IC50 [1] | IC50 [2] | IC50 [3] | Ki [3] | IC50 [4] | IC50 [5] | IC50 [6] | IC50 [7] | IC50 [8] | IC50 [9] | IC50 [10] | IC50 [11] | Ki [11]

Cn1cnc([N+](=O)[O-])c1Sc1ncnc2nc[nH]c12 [AZATHIOPRINE]
Not Active: IC50 [1] | IC50 [2] | IC50 [3] | Ki [3] | IC50 [4] | IC50 [5] | IC50 [6] | IC50 [7] | IC50 [8] | IC50 [9] | IC50 [10] | IC50 [11] | Ki [11]

CC1(C)S[C@@H]2[C@H](NC(=O)[C@H](NC(=O)N3CCNC3=O)c3ccccc3)C(=O)N2[C@H]1C(=O)O [AZLOCILLIN]
Not Active: IC50 [1] | IC50 [2] | IC50 [3] | Ki [3] | IC50 [4] | IC50 [5] | IC50 [6] | IC50 [7] | IC50 [8] | IC50 [9] | IC50 [10] | IC50 [11] | Ki [11]

CC[C@H](C)[C@H](N)C1=N[C@H](C(=O)N[C@@H](CC(C)C)C(=O)N[C@H](CCC(=O)O)C(=O)N[C@H](C(=O)N[C@H]2CCCCNC(=O)[C@H](CC(N)=O)NC(=O)[C@@H](CC(=O)O)NC(=O)[C@H](Cc3cnc[nH]3)NC(=O)[C@@H](Cc3ccccc3)NC(=O)[C@H]([C@@H](C)CC)NC(=O)[C@@H](CCCN)NC2=O)[C@@H](C)CC)CS1 [BACITRACIN] ({Ileψ(thiazoline)Cys}-L[dE]IK[dOrn]I[dF]H[dD]N; lactam 4-C)
Not Active: IC50 [1] | IC50 [2] | IC50 [3] | Ki [3] | IC50 [4] | IC50 [5] | IC50 [6] | IC50 [7] | IC50 [8] | IC50 [9] | IC50 [10] | IC50 [11] | Ki [11]

CCOC(=O)c1ccc(N)cc1 [BENZOCAINE]
Not Active: IC50 [1] | IC50 [2] | IC50 [3] | Ki [3] | IC50 [4] | IC50 [5] | IC50 [6] | IC50 [7] | IC50 [8] | IC50 [9] | IC50 [10] | IC50 [11] | Ki [11]
